One compound from publication PMC9959048, “Lipidation of Naturally Occurring α-Helical Antimicrobial Peptides as a Promising Strategy for Drug Design” (International Journal of Molecular Sciences, 2023) can be followed below.

Molecules are shown by their SMILES. Values after ≈ are worked out from the molar mass of the structure shown. Residues, ends and D or L forms follow the SMILES beside them. *: point of attachment. Octanoyl = CCCCCCCC(=O)*

The subject of one data set is C. glabrata CCM8270. The data set is classed as cell-based, Candida glabrata. Particulars: CCM8270, 24 h. In short, it runs like this: (§1)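 Broth microdilution MICs per CLSI guidelines: bacteria in Mueller–Hinton broth, 24 h at 37 °C; yeasts in MOPS-buffered RPMI-1640 with 2% glucose, 24 h at 35 °C. Growth read by absorbance at 600 nm, % inhibition versus compound-free inoculated wells; triplicate.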

A further data set has as its system POPC liposomes. Description: CD, α-helix content in POPC liposomes. The format is physicochemical. The conditions noted are these: 25 °C, peptide 0.15 mg/mL, 1.3 mM POPC.
Another data set concerns S. aureus cells. Description: CD, α-helix content in the presence of S. aureus cells. The data set is classed as physicochemical, Staphylococcus aureus. The conditions noted are these: for α-Helix percentage, Staphylococcus aureus: peptide 0.15 mg/mL, phosphate buffer 10 mM pH 7.0, 2 h incubation. The method, then: CD experiments were carried out at 25 °C using a Jasco J-815 spectropolarimeter in the wavelength range 185–260 nm. The concentration of the lipopeptides was 0.15 mg/mL. The CD spectra were recorded in water, PBS (pH 7.4), 1.3 mM POPC and 1.3 mM POPG. The results are plotted as the mean molar ellipticity per one amino acid residue (MRME, deg cm^2 dmol^−1) as a function of the wavelength (nm). Additionally, we performed a conformational analysis of the selected compounds in the presence of S. aureus cells. […] The mixtures were then incubated for 2 h before recording the CD spectra.
The percentage of the α-helical structure was calculated based on the mean molar ellipticity at 222 nm using the formula: fH=θ222−3000/−36000−3000·100% where θ222 corresponds to the value of the mean molar ellipticity at a wavelength of 222 nm.

A further data set relates to S. aureus PCM1650. The data set is classed as cell-based, Staphylococcus aureus. Particulars: PCM1650, 24 h. In short, it runs like this:
as §1

A further data set has as its system S. aureus PCM2054. The data set is classed as cell-based, Staphylococcus aureus. Particulars: PCM2054, 24 h. The procedure, abridged:
as §1

The test system of a further data set is C. parapsilosis CCM 8260. The data set is classed as cell-based, Candida parapsilosis. Particulars: CCM 8260, 24 h. In short, it runs like this: as §1

Take `CCCCCCCC(=O)N[C@H](C(=O)N[C@@H](CCCCN)C(=O)N[C@@H](CCCCN)C(=O)N[C@H](C(=O)N[C@@H](CC(C)C)C(=O)N[C@@H](CO)C(=O)N[C@@H](CCCCN)C(=O)N[C@H](C(=O)N[C@@H](CCCCN)C(=O)N[C@@H](CCCCN)C(=O)N[C@@H](CC(C)C)C(=O)N[C@@H](CC(C)C)C(=O)N[C@@H](CCCCN)C(N)=O)[C@@H](C)CC)[C@@H](C)CC)[C@@H](C)CC` [C8-LK6] (Octanoyl-IKKILSKIKKLLK-NH2): the “MIC, C. glabrata CCM8270” value in the data set on C. glabrata CCM8270 turned out to be 25 µg/mL (≈ 14.9 µM). Besides, the “θ222/θ208, POPC” value in the data set on POPC liposomes was found to be 0.82. Besides, the “α-Helix percentage, POPC” value in the data set with POPC liposomes (from ellipticity at 222 nm) was 46%. The “θ222/θ208, Staphylococcus aureus” value in the data set on S. aureus cells (OD0.1 bacterial suspension) is 1.26; with S. aureus cells (OD0.2 bacterial suspension) it was 0.89; in the data set on S. aureus cells (OD0.5 bacterial suspension) it was 0.88. The “α-Helix percentage, Staphylococcus aureus” value with S. aureus cells (OD0.1 bacterial suspension) was found to be 22%; with S. aureus cells (OD0.2 bacterial suspension), 17%; with S. aureus cells (OD0.5 bacterial suspension), 18%. Besides, in the data set on S. aureus cells (S. aureus, various bacterial cell counts of the inoculum), the “α-helical structure in the presence of bacterial cells” value is reported as 17–22%. Moreover, the “MIC, S. aureus PCM1650” value in the data set on S. aureus PCM1650 was determined as 12.5 µg/mL (≈ 7.45 µM). Further, the “MIC, S. aureus PCM2054” value in the data set on S. aureus PCM2054 was determined as 12.5 µg/mL (≈ 7.45 µM). Moreover, the “MIC, C. parapsilosis CCM 8260” value in the data set on C. parapsilosis CCM 8260 is 6.25 µg/mL (≈ 3.72 µM).
